Experimental data taken from the supplement of paper PMC6965134.
± gives the standard deviation of the averaged measurements.

Assay: TIMS collisional cross section (CCS, N2) of the lipid ion; higher = larger ion cross section
Details: sample type: HeLa; ionization mode: positive; one isomer drawn

Structure (SMILES)	TIMS collisional cross section [Å²]
CCCCC/C=C/C/C=C/C/C=C/C/C=C/CCCC(=O)OC[C@H](COP(=O)([O-])OCC[N+](C)(C)C)OC(=O)CCC/C=C/C/C=C/C/C=C/C/C=C/CCCCC [PC 20:4_20:4] (ion (formula + adduct): [C48H80NO8P+H] 1+)	292.7
CC/C=C\C/C=C\C/C=C\C/C=C\C/C=C\CCCC(=O)O[C@H](COC(=O)CCC/C=C\C/C=C\C/C=C\C/C=C\CCCCC)COP(=O)([O-])OCC[N+](C)(C)C [PC 20:4_20:5] (ion (formula + adduct): [C48H78NO8P+H] 1+)	290.3
CC/C=C\C/C=C\C/C=C\C/C=C\C/C=C\C/C=C\CCC(=O)O[C@H](COC(=O)CCC/C=C\C/C=C\C/C=C\C/C=C\CCCCC)COP(=O)([O-])OCC[N+](C)(C)C [PC 20:4_22:6] (ion (formula + adduct): [C50H80NO8P+H] 1+)	295.5
CC/C=C\C/C=C\C/C=C\C/C=C\C/C=C\C/C=C\CCC(=O)OC[C@H](COP(=O)([O-])OCC[N+](C)(C)C)OC(=O)CC/C=C\C/C=C\C/C=C\C/C=C\C/C=C\C/C=C\CC [PC 22:6_22:6] (ion (formula + adduct): [C52H80NO8P+H] 1+)	298.6
CCCCCCCCCCCCCCCCOC[C@H](COP(=O)([O-])OCC[N+](C)(C)C)OC(=O)CCCCCCCCCCCCC [PC O- 16:0@_14:0] (ion (formula + adduct): [C38H78NO7P+H] 1+)	280.8
CCCCCCC/C=C\CCCCCCCC(=O)O[C@H](COCCCCCCCCCCCCCCCC)COP(=O)([O-])OCC[N+](C)(C)C [PC O- 16:0@_17:1] (ion (formula + adduct): [C41H82NO7P+H] 1+)	287.7
CCCCCCCC/C=C\CCCCCCCC(=O)O[C@H](COCCCCCCCCCCCCCCCC)COP(=O)([O-])OCC[N+](C)(C)C [PC O- 16:0@_18:1] (ion (formula + adduct): [C42H84NO7P+H] 1+)	290.7
CCCCC/C=C/C/C=C/C/C=C/C/C=C/CCCC(=O)O[C@H](COCCCCCCCCCCCCCCCC)COP(=O)([O-])OCC[N+](C)(C)C [PC O- 16:0@_20:4] (ion (formula + adduct): [C44H82NO7P+H] 1+)	290.4
CC/C=C\C/C=C\C/C=C\C/C=C\C/C=C\CCCC(=O)O[C@H](COCCCCCCCCCCCCCCCC)COP(=O)([O-])OCC[N+](C)(C)C [PC O- 16:0@_20:5] (ion (formula + adduct): [C44H80NO7P+H] 1+)	287.7
CC/C=C\C/C=C\C/C=C\C/C=C\C/C=C\CCCCCC(=O)O[C@H](COCCCCCCCCCCCCCCCC)COP(=O)([O-])OCC[N+](C)(C)C [PC O- 16:0@_22:5] (ion (formula + adduct): [C46H84NO7P+H] 1+)	294.4
CCCCCCCCCCCCCCCCCCOC[C@H](COP(=O)([O-])OCC[N+](C)(C)C)OC(=O)CCCCCCCCCCCCCCC [PC O- 18:0@_16:0] (ion (formula + adduct): [C42H86NO7P+H] 1+)	293.3
CCCCC/C=C\C/C=C\C/C=C\C/C=C\CCCCCC(=O)O[C@H](COCCCCCCCCCCCCCCCCCC)COP(=O)([O-])OCC[N+](C)(C)C [PC O- 18:0@_22:4] (ion (formula + adduct): [C48H90NO7P+H] 1+)	301.9
CCCCC/C=C\C/C=C\C/C=C\C/C=C\C/C=C\CCC(=O)O[C@H](COCCCCCCCCCCCCCCCCCC)COP(=O)([O-])OCC[N+](C)(C)C [PC O- 18:0@_22:5] (ion (formula + adduct): [C48H88NO7P+H] 1+)	300.2
CC/C=C\C/C=C\C/C=C\C/C=C\C/C=C\C/C=C\CCC(=O)O[C@H](COCCCCCCCCCCCCCCCCCCCC)COP(=O)([O-])OCC[N+](C)(C)C [PC O- 20:0@_22:6] (ion (formula + adduct): [C50H90NO7P+H] 1+)	305.7
CCCCCC/C=C\CCCCCCCC(=O)O[C@H](CO/C=C\CCCCCCCCCCCCCC)COP(=O)([O-])OCC[N+](C)(C)C [PC P- 16:0@_16:1] (ion (formula + adduct): [C40H78NO7P+H] 1+)	281.9
CC/C=C\C/C=C\C/C=C\C/C=C\C/C=C\C/C=C\CCC(=O)O[C@H](CO/C=C\CCCCCCCCCCCCCC)COP(=O)([O-])OCC[N+](C)(C)C [PC P- 16:0@_22:6] (ion (formula + adduct): [C46H80NO7P+H] 1+)	291.3
CCCCCCCCCCCCCC/C=C\OC[C@H](COP(=O)([O-])OCC[N+](C)(C)C)OC(=O)CCCCCCCCCCCCCCC [PC P- 16:0_16:0] (ion (formula + adduct): [C40H80NO7P+H] 1+)	284.4
CCCCCC/C=C\CCCCCCCC(=O)O[C@H](CO/C=C\CCCCCCCCCCCCCCCC)COP(=O)([O-])OCC[N+](C)(C)C [PC P- 18:0@_16:1] (ion (formula + adduct): [C42H82NO7P+H] 1+)	288.6
CC/C=C\C/C=C\C/C=C\C/C=C\C/C=C\C/C=C\CCC(=O)O[C@H](CO/C=C\CCCCCCCCCCCCCCCC)COP(=O)([O-])OCC[N+](C)(C)C [PC P- 18:0@_22:6] (ion (formula + adduct): [C48H84NO7P+H] 1+)	297.1 ± 0.71
CC/C=C\C/C=C\C/C=C\C/C=C\C/C=C\CCCC(=O)O[C@H](CO/C=C\CCCCCCCCCCCCCCCCCC)COP(=O)([O-])OCC[N+](C)(C)C [PC P- 20:0@_20:5] (ion (formula + adduct): [C48H86NO7P+H] 1+)	299.9
CC/C=C\C/C=C\C/C=C\C/C=C\C/C=C\C/C=C\CCC(=O)O[C@H](CO/C=C\CCCCCCCCCCCCCCCCCC)COP(=O)([O-])OCC[N+](C)(C)C [PC P- 20:0@_22:6] (ion (formula + adduct): [C50H88NO7P+H] 1+)	304.8

Same assay, conditions: sample type: Liver; ionization mode: positive; one isomer drawn

Structure (SMILES)	TIMS collisional cross section [Å²]
CCCCC/C=C\C/C=C\CCCCCCCC(=O)O[C@H](COC(=O)CCCCCCCCCCCCCCCCCCC)COP(=O)([O-])OCC[N+](C)(C)C [PC 20:0_18:2] (ion (formula + adduct): [C46H88NO8P+H] 1+)	297.5
CC/C=C\C/C=C\C/C=C\C/C=C\CCCCCCC(=O)O[C@H](COCCCCCCCCCC/C=C\CCCCCCCC)COP(=O)([O-])OCC[N+](C)(C)C [PC O- 20:1@_20:4] (ion (formula + adduct): [C48H88NO7P+H] 1+)	299.9
CCCCC/C=C\C/C=C\C/C=C\C/C=C\CCCCCC(=O)O[C@H](CO/C=C\CCCCCCCCCCCCCCCC)COP(=O)([O-])OCC[N+](C)(C)C [PC P- 18:0@_22:4] (ion (formula + adduct): [C48H88NO7P+H] 1+)	300.4
CC/C=C\C/C=C\C/C=C\C/C=C\C/C=C\C/C=C\CCC(=O)O[C@H](COC(=O)CCCCCCCCCCCCCC)COP(=O)(O)OCCN [PE 15:0@_22:6] (ion (formula + adduct): [C42H72NO8P+H] 1+)	275.7
CCCCCCCC/C=C\CCCCCCCC(=O)O[C@H](COC(=O)CCCCCCCCCCCCCCC)COP(=O)(O)OCCN [PE 16:0@_18:1] (ion (formula + adduct): [C39H76NO8P+H] 1+)	275.7

Same assay, conditions: sample type: plasma; ionization mode: positive; one isomer drawn

Structure (SMILES)	TIMS collisional cross section [Å²]
CCCCC/C=C\C/C=C\C/C=C\CCCCCCC(=O)O[C@H](COC(=O)CCCCCCCCC/C=C\CCCCCCCC)COP(=O)([O-])OCC[N+](C)(C)C [PC 20:1@_20:3] (ion (formula + adduct): [C48H88NO8P+H] 1+)	301.7
CCCCC/C=C\C/C=C\CCCCCCCC(=O)O[C@H](COCCCCCCCCCCCCCCCC)COP(=O)([O-])OCC[N+](C)(C)C [PC O- 16:0@_18:2] (ion (formula + adduct): [C42H82NO7P+H] 1+)	287.3
CCCCC/C=C\C/C=C\C/C=C\C/C=C\CCCCCC(=O)O[C@H](COCCCCCCCCCCCCCCCC)COP(=O)([O-])OCC[N+](C)(C)C [PC O- 16:0@_22:4] (ion (formula + adduct): [C46H86NO7P+H] 1+)	296.3
CC/C=C\C/C=C\C/C=C\C/C=C\CCCCCCC(=O)O[C@H](COCCCCCCCC/C=C\CCCCCC)COP(=O)([O-])OCC[N+](C)(C)C [PC O- 16:1@_20:4] (ion (formula + adduct): [C44H80NO7P+H] 1+)	287.2
CCCCC/C=C\C/C=C\CCCCCCCC(=O)O[C@H](COCCCCCCCCCCCCCCCCCC)COP(=O)([O-])OCC[N+](C)(C)C [PC O- 18:0@_18:2] (ion (formula + adduct): [C44H86NO7P+H] 1+)	294.7
CCCCC/C=C\C/C=C\C/C=C\C/C=C\CCCC(=O)O[C@H](COCCCCCCCC/C=C\CCCCCCCC)COP(=O)([O-])OCC[N+](C)(C)C [PC O- 18:1@_20:4] (ion (formula + adduct): [C46H84NO7P+H] 1+)	294
CC/C=C\C/C=C\C/C=C\C/C=C\C/C=C\C/C=C\CCC(=O)O[C@H](COCCCCCCCCCCCCCCCCCCCC)COP(=O)([O-])OCC[N+](C)(C)C [PC O- 20:0@_22:6] (ion (formula + adduct): [C50H90NO7P+H] 1+)	304.9
CCCCCCCC/C=C\CCCCCCCC(=O)O[C@H](CO/C=C\CCCCCCCCCCCCCC)COP(=O)([O-])OCC[N+](C)(C)C [PC P- 16:0@_18:1] (ion (formula + adduct): [C42H82NO7P+H] 1+)	287.7
CCCCCCCCCCCCCC/C=C\OC[C@H](COP(=O)([O-])OCC[N+](C)(C)C)OC(=O)CCCCCCCCCCCCCCC [PC P- 16:0_16:0] (ion (formula + adduct): [C40H80NO7P+H] 1+)	284.4
CCCCC/C=C\C/C=C\C/C=C\CCCCCCC(=O)O[C@H](CO/C=C\CCCCCCCCCCCCCCCC)COP(=O)([O-])OCC[N+](C)(C)C [PC P- 18:0@_20:3] (ion (formula + adduct): [C46H86NO7P+H] 1+)	296.1
CCCCCCCC/C=C\CCCCCCCC(=O)O[C@H](COC(=O)CCCCCCCCCCCCCCC)COP(=O)(O)OCCN [PE 16:0@_18:1] (ion (formula + adduct): [C39H76NO8P+H] 1+)	275.3
